{
  "source": "patent US20040087561A1",
  "about": "“Treatment of sexual dysfunction” (priority 2000, published 2004)",
  "key": {"[1]": {"test_system": "ovariectomised female Sprague Dawley rats", "test": "Female rat sexual receptivity (lordosis quotient)", "type": "in vivo", "settings": "Example 2; quinelorane 6.25 μg/kg s.c., 90 min; Compound (1) 10 mg/kg i.p., 1 h", "description": "Ovariectomised adult female Sprague Dawley rats (180-200 g, from Charles River) were housed in groups of 6 in a reversed lighting system of 12 h light:dark (lights off 7.00-19.00 h). Two weeks after ovariectomy they were used for sexual activity tests. The experiments started at least 5 h into the dark period.\nCompound (1) was dissolved in 100% β-cyclodextrin and then diluted with saline to a final solution of 50% 2-hydroxypropyl-β-cyclodextrin. It was administered intraperitoneally (i.p.) at a dose of 10 mg/kg, in a dosing volume of 1 ml/kg. Quinelorane (6.25 μg/kg) was dissolved in water and administered s.c. as positive control. Forty eight hours before testing, ovariectomised female rats (as described above), were primed with 5 μg oestradiol benzoate dissolved in corn oil and injected subcutaneously. […] The females were placed with a series of vigorous male rats and subjected to 10 mounts.\nThe lordotic response of the animal was recorded and expressed as a percentage of the mounts (i.e. lordosis quotient, LQ), as previously described. Animals showing LQ<20 were considered non-receptive and were included in the study. Each rat was tested prior to administration of the compound and then tested similarly post-injection. The pre-treatment times were 1 h for Compound (1) and vehicle (50% β-cyclodextrin, i.p.) or 90 min for quinelorane.\nThe above compound was dissolved in PEG200 vehicle and administered orally. Quinelorane dihydrochloride (LY 163,502, 6.25 μg/kg) was dissolved in water and administered subcutaneously (s.c.), as a positive control. Both compounds were administered in a 1 ml/kg volume.\nForty eight hours before tests, the animals were primed with 5 μg oestradiol benzoate (Sigma Chemical. Co. Ltd., UK) dissolved in corn oil and injected subcutaneously. The females were placed with a series of vigorous male rats and subjected to 10 mounts. The lordotic response of the animal was recorded and expressed as a percentage of the mounts (i.e. lordosis quotient, LQ). […] Animals showing higher LQ were not included in the study. Each rat was tested prior to administration of the compound and then tested similarly at 1 h and 90 min post-injection of the above compound or quinelorane respectively."}, "[2]": {"test_system": "ovariectomised female Sprague Dawley rats", "test": "Plasma sexual hormone levels (radioimmunoassay) in ovariectomised female rats", "type": "in vivo, rat", "description": "Ovariectomised adult female Sprague Dawley rats (180-200 g) were housed in groups of 6 in a reversed lighting system of 12 h light:dark (lights off 7.00-19.00 h). They were used for the experiments at least two weeks after ovariectomy. Forty eight hours before tests, the animals were primed with oestradiol benzoate (5 μg/0.1 ml in corn oil, s.c.). Progesterone (0.5 mg/0.1 ml, in corn oil, s.c.) was administered 4 h before blood collection, as a positive control. Compound (1) (3-10 mg/kg, i.p.) was administered in 50% 2-hydroxypropyl-β-cyclodextrin, 1 h prior to blood collection. Blood was collected from the trunk, after decapitation. It was immediately centrifuged (3500 r.p.m., 4° C., 5 min) and the plasmas frozen until assayed for hormonal content, using commercially available radioimmunoassay kits (^125I-labelled hormones) for oestradiol, progesterone, LH, FSH and prolactin."}, "conscious male rat": {"test_system": "conscious male rat", "test": "Penile intracavernosal pressure in the conscious male rat (telemetry)", "type": "in vivo", "description": "In addition to treating women with FSD, bombesin antagonists will be useful in treating male erectile dysfunction (MED. Both the non-selective BB1/2 antagonists (Compound 1; 10 mg/kg sc) and the selective BB I receptor antagonist (Compound 3; 15 mg/kg sc) is pro-erectile in a conscious rat model of penile erection (FIGS. 24 and 25). Erectile responses were recorded by measuring intracavemosal pressure using surgically implanted telemetric device. The specific details the surgical procedures, data acquisition and analysis can be found in detail in Bernabe 1999.\nCompound 1 and compound 3 were dissolved in 50% O-cyclodextrin in saline. They were administered at a dose of 15 mg/kg subcutaneously (sc). […] These increases equate to penile erection. Both Compounds 1 and 3 induced a number of erections in a similar manner to those observed with apomorphine or melanotan-II—both of which are clinically proven agents that are effective in the treatment of MED. Moreover the amplitude of the increases observed were similar to those observed with apomorphine or melanotan-II. The mechanism of action is thought to be similar to the effects on female genital flow ie CNS potentiation of the descending neuronal pathways that control penile erection."}, "[3]": {"settings": "Compound (1) 3-10 mg/kg 1 h, progesterone 0.5 mg/0.1 ml s.c. 4 h before blood collection, vs vehicle"}, "[4]": {"settings": "Compound (1) 3-10 mg/kg, 1 h before blood collection"}},
  "data": [
    {"smiles": "COc1ccc(C2(CNC(=O)[C@](C)(Cc3c[nH]c4ccccc34)NC(=O)Nc3ccc([N+](=O)[O-])cc3)CCCCC2)nc1", "note": "[Compound (1), (S) 3-(1H-Indol-3-yl)-N-[1-(5-methoxy-pyridin-2-yl)-cyclohexyl-methyl]-2-methyl-2-[3-(4-nitro-phenyl)-ureido]-propionamide]", "values": [
      {"measurement": "lordosis quotient (LQ) compared to LQ before administration", "setting": "[1]", "value": "significant (P<0.05) stimulatory effect on the LQ"},
      {"measurement": "LH plasma levels", "setting": "[2]; [3]", "value": "no effect"},
      {"measurement": "progesterone plasma levels", "setting": "[2]; [3]", "value": "no effect"},
      {"measurement": "FSH plasma levels", "setting": "[2]; [4]", "value": "no effect"},
      {"measurement": "oestradiol plasma levels", "setting": "[2]; [4]", "value": "no effect"},
      {"measurement": "prolactin plasma levels", "setting": "[2]; [4]", "value": "no effect"},
      {"measurement": "penile erection (erectile response)", "setting": "conscious male rat; Compound 1 10 mg/kg sc, Compound 3 15 mg/kg sc, conscious rat model", "value": "pro-erectile"},
      {"measurement": "intracavernosal pressure", "setting": "conscious male rat; one hour after 10 mg/kg sc Compound 1, 45 minutes after 15 mg/kg sc compound 3, conscious rat", "value": "significant increases in intracavernosal pressure"}
    ]}
  ]
}
